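How tested: cells in 96-well plates exposed to compound for 48 hours at five concentrations. Here, GI50 denotes the concentration required for 50% inhibition of growth. The concentration for full growth arrest is given as TGI.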
Assays:
Assay in all cases: growth of human tumour cells (NCI), 48 h
[1] = test system: OVCAR-5 ovarian
[2] = test system: MDA-MB-231 breast
[3] = test system: HCT-15 colon
[4] = test system: MCF7 breast
[5] = test system: ACHN renal
[6] = test system: SNB-19 CNS
[7] = test system: HL-60(TB) leukemia
[8] = test system: MALME-3M melanoma
[9] = test system: NCI-H522 lung
[10] = test system: SN12C renal
[11] = test system: HS 578T breast
[12] = test system: SR leukemia
[13] = test system: T-47D breast
[14] = test system: NCI-H226 lung
[15] = test system: OVCAR-4 ovarian
[16] = test system: HCT-116 colon
[17] = test system: KM12 colon
[18] = test system: CAKI-1 renal
[19] = test system: U251 CNS
[20] = test system: SK-MEL-2 melanoma
[21] = test system: MOLT-4 leukemia
[22] = test system: NCI-H23 lung
[23] = test system: LOX IMVI melanoma
[24] = test system: NCI/ADR-RES ovarian
[25] = test system: SW-620 colon
[26] = test system: HCC-2998 colon
[27] = test system: A549 NSCLC
[28] = test system: OVCAR-3 ovarian
[29] = test system: SK-OV-3 ovarian
[30] = test system: HOP-62 NSCLC
[31] = test system: COLO 205 colon
[32] = test system: RXF 393 renal
[33] = test system: SF-295 CNS
[34] = test system: DU-145 prostate
[35] = test system: K-562 leukemia
[36] = test system: TK-10 renal
[37] = test system: PC-3 prostate
[38] = test system: IGROV1 ovarian
[39] = test system: SF-268 CNS
[40] = test system: UACC-62 melanoma
[41] = test system: BT-549 breast
[42] = test system: UACC-257 melanoma
[43] = test system: MDA-MB-435
[44] = test system: A498 renal
[45] = test system: OVCAR-8 ovarian
[46] = test system: 786-0 renal
[47] = test system: M14 melanoma
[48] = test system: RPMI-8226 leukemia
[49] = test system: SK-MEL-28 melanoma
[50] = test system: SF-539 CNS
[51] = test system: SNB-75 CNS
[52] = test system: UO-31 renal
[53] = test system: SK-MEL-5 melanoma
[54] = test system: NCI-H460 lung
[55] = test system: HOP-92 NSCLC
[56] = test system: CCRF-CEM leukemia
[57] = test system: HT29 colon

## COc1cc(-c2cc(/C=C3\C(=O)Nc4cc(Cl)ccc43)[nH]n2)cc(OC)c1OC
[1]
  GI50: 4.27 µM
  TGI: 78.1 µM
[2]
  GI50: 3.14 µM
  TGI: > 100 µM
[3]
  GI50: 2.59 µM
  TGI: 7.77 µM
[4]
  GI50: 2.26 µM
  TGI: 6.39 µM
[5]
  GI50: 3.48 µM
  TGI: 25.6 µM
[6]
  GI50: 3.45 µM
  TGI: > 100 µM
[7]
  GI50: 2.45 µM
  TGI: 7.59 µM
[8]
  GI50: 2.71 µM
  TGI: 6.96 µM
[9]
  GI50: 2.4 µM
  TGI: 6.09 µM
[10]
  GI50: 2.68 µM
  TGI: 14.2 µM
[11]
  GI50: 2.74 µM
  TGI: 9.31 µM
[12]
  GI50: 2.33 µM
  TGI: 5.66 µM
[13]
  GI50: 2.13 µM
  TGI: 6.79 µM
[14]
  GI50: 2.29 µM
  TGI: 7.94 µM
[15]
  GI50: 2.91 µM
  TGI: 15 µM
[16]
  GI50: 2.74 µM
  TGI: 10.3 µM
[17]
  GI50: 2.27 µM
  TGI: 6.93 µM
[18]
  GI50: 2.71 µM
  TGI: 22.5 µM
[19]
  GI50: 2.84 µM
  TGI: 14.8 µM
[20]
  GI50: 2.75 µM
  TGI: 7.5 µM
[21]
  GI50: 2.48 µM
  TGI: 6.43 µM
[22]
  GI50: 3.84 µM
  TGI: 18.1 µM
[23]
  GI50: 1.81 µM
  TGI: 4.06 µM
[24]
  GI50: 2.74 µM
  TGI: 7.49 µM
[25]
  GI50: 2.87 µM
  TGI: 14.9 µM
[26]
  GI50: 7.42 µM
  TGI: > 100 µM
[27]
  GI50: 3.23 µM
  TGI: 15 µM
[28]
  GI50: 2.74 µM
  TGI: 15.1 µM
[29]
  GI50: 3.29 µM
  TGI: 25.1 µM
[30]
  GI50: 2.16 µM
  TGI: 6.46 µM
[31]
  GI50: 1.93 µM
  TGI: 4.36 µM
[32]
  GI50: 5.66 µM
  TGI: 42 µM
[33]
  GI50: 2.84 µM
  TGI: 8.89 µM
[34]
  GI50: 3.46 µM
  TGI: 14.5 µM
[35]
  GI50: 2.82 µM
  TGI: 22.6 µM
[36]
  GI50: 5.95 µM
  TGI: 32.3 µM
[37]
  GI50: 2.25 µM
  TGI: 7.83 µM
[38]
  GI50: 3.45 µM
  TGI: 37.2 µM
[39]
  GI50: 3.36 µM
  TGI: 29.1 µM
[40]
  GI50: 1.76 µM
  TGI: 4.3 µM
[41]
  GI50: 2.54 µM
  TGI: 7.58 µM
[42]
  GI50: 2.43 µM
  TGI: 6.13 µM
[43]
  GI50: 1.96 µM
  TGI: 4.18 µM
[44]
  GI50: 2.24 µM
  TGI: 8.22 µM
[45]
  GI50: 2.17 µM
  TGI: 5.32 µM
[46]
  GI50: 14.4 µM
  TGI: 60.1 µM
[47]
  GI50: 2.42 µM
  TGI: 6.99 µM
[48]
  GI50: 2.02 µM
  TGI: 4.92 µM
[49]
  GI50: 3.91 µM
  TGI: 26.4 µM
[50]
  GI50: 3.92 µM
  TGI: 21.8 µM
[51]
  GI50: 1.87 µM
  TGI: 8.17 µM
[52]
  GI50: 2.66 µM
  TGI: 15.6 µM
[53]
  GI50: 1.43 µM
  TGI: 2.79 µM
[54]
  GI50: 2.1 µM
  TGI: 4.9 µM
[55]
  GI50: 1.77 µM
  TGI: 8.89 µM
[56]
  GI50: 2.63 µM
  TGI: 8.43 µM
[57]
  GI50: 3.46 µM
  TGI: 18.6 µM

## O=C1C(Br)=CC2C1C1C3CCC3C2(Br)C12OCCO2 (centres undefined)
[1]
  GI50: 2.47 µM
  TGI: 8.91 µM
[2]
  GI50: 1.84 µM
  TGI: 11.4 µM
[3]
  GI50: 1.22 µM
  TGI: 3.49 µM
[4]
  GI50: 1.98 µM
  TGI: 12.8 µM
[5]
  GI50: 2.94 µM
  TGI: 12.2 µM
[6]
  GI50: 9.65 µM
  TGI: 23 µM
[7]
  GI50: 2.2 µM
  TGI: 5.66 µM
[8]
  GI50: 4.45 µM
  TGI: 21.3 µM
[9]
  GI50: 1.82 µM
  TGI: 4.73 µM
[10]
  GI50: 3.08 µM
  TGI: 15.3 µM
[11]
  GI50: 3.46 µM
  TGI: 71 µM
[12]
  GI50: 0.721 µM
  TGI: 6.57 µM
[13]
  GI50: 2.48 µM
  TGI: 12.9 µM
[14]
  GI50: 3.55 µM
  TGI: 20.4 µM
[15]
  GI50: 2.79 µM
  TGI: 14.7 µM
[16]
  GI50: 2.08 µM
  TGI: 10.3 µM
[17]
  GI50: 2.39 µM
  TGI: 8.4 µM
[18]
  GI50: 4.1 µM
  TGI: 17.6 µM
[19]
  GI50: 2.88 µM
  TGI: 13 µM
[20]
  GI50: 3.17 µM
  TGI: 9.09 µM
[21]
  GI50: 3.64 µM
  TGI: 10.8 µM
[23]
  GI50: 1.21 µM
  TGI: 3.74 µM
[24]
  GI50: 4.84 µM
  TGI: 41 µM
[25]
  GI50: 3.12 µM
  TGI: 11.6 µM
[26]
  GI50: 6.6 µM
  TGI: 20.5 µM
[27]
  GI50: 2.29 µM
  TGI: 10.9 µM
[28]
  GI50: 3.24 µM
  TGI: 9.88 µM
[29]
  GI50: 4.3 µM
  TGI: 15.3 µM
[30]
  GI50: 4.25 µM
  TGI: 16.5 µM
[31]
  GI50: 3.35 µM
  TGI: 10.9 µM
[32]
  GI50: 2.64 µM
  TGI: 11.6 µM
[33]
  GI50: 9.69 µM
  TGI: 27.5 µM
[34]
  GI50: 3.22 µM
  TGI: 13.8 µM
[35]
  GI50: 2.98 µM
  TGI: 13 µM
[37]
  GI50: 3.47 µM
  TGI: 19 µM
[38]
  GI50: 2.89 µM
  TGI: 12.7 µM
[39]
  GI50: 2.5 µM
  TGI: 15.5 µM
[40]
  GI50: 2.87 µM
  TGI: 14.1 µM
[41]
  GI50: 5.03 µM
  TGI: 18.1 µM
[42]
  GI50: 2.14 µM
  TGI: 12.5 µM
[43]
  GI50: 2.93 µM
  TGI: 13.4 µM
[44]
  GI50: 2.99 µM
  TGI: 11.4 µM
[45]
  GI50: 2.8 µM
  TGI: 12.3 µM
[46]
  GI50: 4.32 µM
  TGI: 16 µM
[47]
  GI50: 4.45 µM
  TGI: 19.9 µM
[48]
  GI50: 1.71 µM
  TGI: 5.76 µM
[49]
  GI50: 3.98 µM
  TGI: 18 µM
[50]
  GI50: 2.15 µM
  TGI: 5.99 µM
[51]
  GI50: 3.42 µM
  TGI: 34.7 µM
[52]
  GI50: 3.4 µM
  TGI: 13.4 µM
[53]
  GI50: 3.19 µM
  TGI: 14.4 µM
[54]
  GI50: 2.08 µM
  TGI: 10.2 µM
[55]
  GI50: 5.08 µM
  TGI: 21.8 µM
[56]
  GI50: 1.82 µM
  TGI: 10.5 µM
[57]
  GI50: 2.75 µM
  TGI: 10.3 µM
